Results reported in PubChem BioAssay AID651642 (Sanford-Burnham Center for Chemical Genomics, 2012).
pIC50: −log10 of the molar value.

Experiments:
HL-1 = assay: cardiomyocyte survival under oxidative or metabolic stress – cell-based, panel, H9c2 and HL-1, H2O2, 2-deoxyglucose, ATP luminescence, SAR follow-up (AID 651642)
H9c2 = assay: as above
[1] = H9c2/HL-1 cardiomyocyte 2-deoxyglucose damage, mean of runs, with 2-deoxyglucose, mean IC50 across panel
[2] = H9c2/HL-1 cardiomyocyte 2-deoxyglucose damage, run 1, with 2-deoxyglucose
[3] = H9c2/HL-1 cardiomyocyte 2-deoxyglucose damage, run 2, with 2-deoxyglucose
[4] = H9c2/HL-1 cardiomyocyte 2-deoxyglucose damage, run 3, with 2-deoxyglucose
[5] = H9c2/HL-1 cardiomyocyte 2-deoxyglucose damage, run 4, with 2-deoxyglucose
[6] = H9c2/HL-1 cardiomyocyte H2O2 oxidative damage, mean of runs, with H2O2, mean IC50 across panel
[7] = H9c2/HL-1 cardiomyocyte H2O2 oxidative damage, run 1, with H2O2
[8] = H9c2/HL-1 cardiomyocyte H2O2 oxidative damage, run 2, with H2O2
[9] = H9c2/HL-1 cardiomyocyte H2O2 oxidative damage, run 3, with H2O2
[10] = H9c2/HL-1 cardiomyocyte H2O2 oxidative damage, run 4, with H2O2

Row | Compound | pIC50 (HL-1; [1]) | pIC50 (HL-1; [2]) | pIC50 (HL-1; [3]) | pIC50 (HL-1; [4]) | pIC50 (HL-1; [5]) | pIC50 (HL-1; [6]) | pIC50 (HL-1; [7]) | pIC50 (HL-1; [8]) | pIC50 (HL-1; [9]) | pIC50 (HL-1; [10]) | pIC50 (H9c2; [1]) | pIC50 (H9c2; [2]) | pIC50 (H9c2; [3]) | pIC50 (H9c2; [4]) | pIC50 (H9c2; [5]) | pIC50 (H9c2; [7]) | pIC50 (H9c2; [8]) | pIC50 (H9c2; [9]) | pIC50 (H9c2; [10]) | pIC50 (H9c2; [6])
1 | COc1cc(-c2cc(C(=O)Nc3cccc(C(=O)N(C)C)c3)c3ccccc3n2)cc(OC)c1OC | 4.78 | 5.16 | 5.12 | 4.61 | 4.57 | 5.03 | 5.13 | 4.89 | 5.12 | 5.01 | < 4.10 | < 4.10 | < 4.10 | < 4.10 | < 4.10 | < 4.10 | 5.50 | 5.48 | 5.42 | –
2 | COc1cc(-c2cc(C(=O)Nc3cccc(C(=O)Nc4ccccc4)c3)c3ccccc3n2)cc(OC)c1OC | 5.92 | 6.15 | 6.10 | 5.84 | 5.74 | – | < 4.10 | 5.81 | 5.77 | 5.67 | 5.33 | 5.24 | 5.24 | 5.45 | 5.41 | 5.81 | 5.71 | 6.14 | 6.05 | 5.89
3 | COc1ccc2c(c1OC)C(=O)N1c3ccccc3C(=O)N(Cc3ccc(C)cc3C)C21 (configuration not stated) | < 4.10 | < 4.10 | < 4.10 | < 4.10 | < 4.10 | – | < 4.10 | < 4.10 | < 4.10 | < 4.10 | < 4.10 | < 4.10 | < 4.10 | < 4.10 | < 4.10 | < 4.10 | < 4.10 | < 4.10 | < 4.10 | < 4.10
